Key:
Settings in all cases: exposure time: 72 h
E13 [1] = patient-derived glioblastoma stem cells of classical subtype; test: phenotypic distance (Euclidean, principal components) from DMSO controls (arbitrary units); higher = stronger morphological change
E31 [2] = patient-derived glioblastoma stem cells of proneural subtype; test: as above
E28 [3] = patient-derived glioblastoma stem cells of classical subtype; test: as above
FT3469 [4] = normal neural stem cell line; test: as above
E34 [5] = patient-derived glioblastoma stem cells of proneural subtype; test: as above
E57 [6] = patient-derived glioblastoma stem cells of mesenchymal subtype; test: as above
E21 [7] = patient-derived glioblastoma stem cells of mesenchymal subtype; test: as above
E13 [8] = test: surviving fraction (nuclei count normalised to DMSO); higher = more cells surviving (less toxic)
E31 [9] = test: as above
E28 [10] = test: as above
FT3469 [11] = test: as above
E34 [12] = test: as above
E57 [13] = test: as above
E21 [14] = test: as above
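Wherever phenotypic distance (Euclidean, principal components) from DMSO controls is given: cell Painting imaging in 384-well plates, CellProfiler features reduced to at least 20 principal components, Euclidean distance versus same-plate DMSO vehicle wells (0.1% v/v), median over six images per well.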
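Wherever surviving fraction (nuclei count normalised to DMSO) is given: nuclei counted by high-content imaging of Hoechst-stained cells in laminin-coated 384-well plates, relative to 0.1% DMSO vehicle wells, with staurosporine as cell-death control.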

C[C@]12CC[C@H](O)C[C@H]1CC[C@@H]1[C@@H]2C[C@@H](O)[C@]2(C)[C@@H](C3=CC(=O)OC3)CC[C@]12O [Digoxigenin]
Settings	phenotypic distance	surviving fraction
E13 [1], 4.1 nM	0.193	–
E13 [1], 12.3 nM	0.571	–
E13 [1], 37 nM	0.503	–
E13 [1], 111.1 nM	0.911	–
E13 [1], 333.3 nM	2.63	–
E13 [1], 1000 nM	3.73	–
E13 [1], 3000 nM	4.86	–
E13 [8], 4.1 nM	–	0.965
E13 [8], 12.3 nM	–	1.05
E13 [8], 37 nM	–	0.962
E13 [8], 111.1 nM	–	0.89
E13 [8], 333.3 nM	–	0.662
E13 [8], 1000 nM	–	0.426
E13 [8], 3000 nM	–	0.354
E21 [7], 4.1 nM	0.486	–
E21 [7], 12.3 nM	0.815	–
E21 [7], 37 nM	0.94	–
E21 [7], 111.1 nM	1.64	–
E21 [7], 333.3 nM	3.18	–
E21 [7], 1000 nM	3.95	–
E21 [7], 3000 nM	6.35	–
E21 [14], 4.1 nM	–	0.996
E21 [14], 12.3 nM	–	0.951
E21 [14], 37 nM	–	0.891
E21 [14], 111.1 nM	–	0.887
E21 [14], 333.3 nM	–	0.582
E21 [14], 1000 nM	–	0.473
E21 [14], 3000 nM	–	0.331
E28 [3], 4.1 nM	0.383	–
E28 [3], 12.3 nM	0.587	–
E28 [3], 37 nM	0.46	–
E28 [3], 111.1 nM	0.569	–
E28 [3], 333.3 nM	0.59	–
E28 [3], 1000 nM	1.04	–
E28 [3], 3000 nM	2.24	–
E28 [10], 4.1 nM	–	1.01
E28 [10], 12.3 nM	–	1.11
E28 [10], 37 nM	–	0.883
E28 [10], 111.1 nM	–	0.991
E28 [10], 333.3 nM	–	1.02
E28 [10], 1000 nM	–	0.998
E28 [10], 3000 nM	–	0.537
E31 [2], 4.1 nM	0.558	–
E31 [2], 12.3 nM	0.764	–
E31 [2], 37 nM	0.809	–
E31 [2], 111.1 nM	0.828	–
E31 [2], 333.3 nM	1.83	–
E31 [2], 1000 nM	3.63	–
E31 [2], 3000 nM	4.82	–
E31 [9], 4.1 nM	–	1.01
E31 [9], 12.3 nM	–	0.832
E31 [9], 37 nM	–	0.916
E31 [9], 111.1 nM	–	0.996
E31 [9], 333.3 nM	–	0.946
E31 [9], 1000 nM	–	0.603
E31 [9], 3000 nM	–	0.348
E34 [5], 4.1 nM	0.591	–
E34 [5], 12.3 nM	0.506	–
E34 [5], 37 nM	0.531	–
E34 [5], 111.1 nM	0.98	–
E34 [5], 333.3 nM	1.57	–
E34 [5], 1000 nM	3.22	–
E34 [5], 3000 nM	4.52	–
E34 [12], 4.1 nM	–	0.86
E34 [12], 12.3 nM	–	0.942
E34 [12], 37 nM	–	0.861
E34 [12], 111.1 nM	–	1.04
E34 [12], 333.3 nM	–	0.767
E34 [12], 1000 nM	–	0.63
E34 [12], 3000 nM	–	0.568
E57 [6], 4.1 nM	0.552	–
E57 [6], 12.3 nM	1.14	–
E57 [6], 37 nM	0.391	–
E57 [6], 111.1 nM	0.908	–
E57 [6], 333.3 nM	3.27	–
E57 [6], 1000 nM	4.63	–
E57 [6], 3000 nM	6.24	–
E57 [13], 4.1 nM	–	0.942
E57 [13], 12.3 nM	–	0.969
E57 [13], 37 nM	–	1.05
E57 [13], 111.1 nM	–	0.975
E57 [13], 333.3 nM	–	0.663
E57 [13], 1000 nM	–	0.346
E57 [13], 3000 nM	–	0.238
FT3469 [4], 4.1 nM	1	–
FT3469 [4], 12.3 nM	1.82	–
FT3469 [4], 37 nM	0.883	–
FT3469 [4], 111.1 nM	1.27	–
FT3469 [4], 333.3 nM	2.84	–
FT3469 [4], 1000 nM	4.38	–
FT3469 [4], 3000 nM	3.34	–
FT3469 [11], 4.1 nM	–	0.774
FT3469 [11], 12.3 nM	–	0.984
FT3469 [11], 37 nM	–	1.03
FT3469 [11], 111.1 nM	–	0.968
FT3469 [11], 333.3 nM	–	0.801
FT3469 [11], 1000 nM	–	0.652
FT3469 [11], 3000 nM	–	0.62

C[C@H]1O[C@@H](O[C@H]2[C@@H](O)C[C@H](O[C@H]3[C@@H](O)C[C@H](O[C@H]4CC[C@@]5(C)[C@H](CC[C@@H]6[C@@H]5C[C@@H](O)[C@]5(C)[C@@H](C7=CC(=O)OC7)CC[C@]65O)C4)O[C@@H]3C)O[C@@H]2C)C[C@H](O)[C@@H]1O [Digoxin]
Settings	phenotypic distance	surviving fraction
E13 [1], 4.1 nM	2.96	–
E13 [1], 12.3 nM	3.64	–
E13 [1], 37 nM	5.02	–
E13 [1], 111.1 nM	5.57	–
E13 [1], 333.3 nM	6.42	–
E13 [1], 1000 nM	6.06	–
E13 [1], 3000 nM	6.15	–
E13 [8], 4.1 nM	–	0.795
E13 [8], 12.3 nM	–	0.448
E13 [8], 37 nM	–	0.349
E13 [8], 111.1 nM	–	0.348
E13 [8], 333.3 nM	–	0.272
E13 [8], 1000 nM	–	0.306
E13 [8], 3000 nM	–	0.266
E21 [7], 4.1 nM	2.11	–
E21 [7], 12.3 nM	3.25	–
E21 [7], 37 nM	3.77	–
E21 [7], 111.1 nM	6.27	–
E21 [7], 333.3 nM	6.66	–
E21 [7], 1000 nM	5.99	–
E21 [7], 3000 nM	6.15	–
E21 [14], 4.1 nM	–	0.854
E21 [14], 12.3 nM	–	0.676
E21 [14], 37 nM	–	0.497
E21 [14], 111.1 nM	–	0.368
E21 [14], 333.3 nM	–	0.269
E21 [14], 1000 nM	–	0.266
E21 [14], 3000 nM	–	0.218
E28 [3], 4.1 nM	1	–
E28 [3], 12.3 nM	1.47	–
E28 [3], 37 nM	2.1	–
E28 [3], 111.1 nM	2.57	–
E28 [3], 333.3 nM	2.97	–
E28 [3], 1000 nM	3.74	–
E28 [3], 3000 nM	2.92	–
E28 [10], 4.1 nM	–	0.839
E28 [10], 12.3 nM	–	0.85
E28 [10], 37 nM	–	0.696
E28 [10], 111.1 nM	–	0.628
E28 [10], 333.3 nM	–	0.491
E28 [10], 1000 nM	–	0.452
E28 [10], 3000 nM	–	0.332
E31 [2], 4.1 nM	2.21	–
E31 [2], 12.3 nM	3.02	–
E31 [2], 37 nM	4.38	–
E31 [2], 111.1 nM	5.51	–
E31 [2], 333.3 nM	5.08	–
E31 [2], 1000 nM	4.94	–
E31 [2], 3000 nM	4.77	–
E31 [9], 4.1 nM	–	0.87
E31 [9], 12.3 nM	–	0.721
E31 [9], 37 nM	–	0.47
E31 [9], 111.1 nM	–	0.403
E31 [9], 333.3 nM	–	0.36
E31 [9], 1000 nM	–	0.356
E31 [9], 3000 nM	–	0.252
E34 [5], 4.1 nM	1.18	–
E34 [5], 12.3 nM	3.09	–
E34 [5], 37 nM	4.76	–
E34 [5], 111.1 nM	5.12	–
E34 [5], 333.3 nM	3.77	–
E34 [5], 1000 nM	3.7	–
E34 [5], 3000 nM	5.72	–
E34 [12], 4.1 nM	–	0.979
E34 [12], 12.3 nM	–	0.745
E34 [12], 37 nM	–	0.632
E34 [12], 111.1 nM	–	0.539
E34 [12], 333.3 nM	–	0.466
E34 [12], 1000 nM	–	0.394
E34 [12], 3000 nM	–	0.293
E57 [6], 4.1 nM	1.42	–
E57 [6], 12.3 nM	3.76	–
E57 [6], 37 nM	5.52	–
E57 [6], 111.1 nM	5.37	–
E57 [6], 333.3 nM	6.22	–
E57 [6], 1000 nM	6.34	–
E57 [6], 3000 nM	6.45	–
E57 [13], 4.1 nM	–	1
E57 [13], 12.3 nM	–	0.74
E57 [13], 37 nM	–	0.392
E57 [13], 111.1 nM	–	0.27
E57 [13], 333.3 nM	–	0.207
E57 [13], 1000 nM	–	0.166
E57 [13], 3000 nM	–	0.112
FT3469 [4], 4.1 nM	2.61	–
FT3469 [4], 12.3 nM	3.2	–
FT3469 [4], 37 nM	4.1	–
FT3469 [4], 111.1 nM	3.74	–
FT3469 [4], 333.3 nM	3.18	–
FT3469 [4], 1000 nM	4.16	–
FT3469 [4], 3000 nM	3.8	–
FT3469 [11], 4.1 nM	–	0.79
FT3469 [11], 12.3 nM	–	0.652
FT3469 [11], 37 nM	–	0.628
FT3469 [11], 111.1 nM	–	0.686
FT3469 [11], 333.3 nM	–	0.684
FT3469 [11], 1000 nM	–	0.577
FT3469 [11], 3000 nM	–	0.566

Reference: the supplement of paper PMC13207355
